Patent US10646488B2 (Araxes Pharma LLC, priority 2016, dated 2020)

Biological target: T1, KRAS G12C 1-169, his-tagged protein, GDP-loaded (Homo sapiens, UniProt P01116, G12C)
T1 construct: KRAS G12C 1-169, his-tagged protein, GDP-loaded
Assay: Covalent binding (% modification) to KRAS G12C by mass spectrometry; also: test concentration or dose not given here
Conditions: covalent binding to KRAS G12C after a three minute incubation period

Q: C=CC(=O)N1C[C@H](C)N(c2nc(OCCCN(C)C)nc3c(F)c(-c4cc(O)cc5ccccc45)c(Cl)cc23)C[C@H]1C [Compound 181, 1-((2R,5S)-4-(6-chloro-2-(3-(dimethylamino)propoxy)-8-fluoro-7-(3-hydroxy-naphthalen-1-yl)quinazolin-4-yl)-2,5-dimethyl-piperazin-1-yl) prop-2-en-1-one] was tested. Which Binding % did it give?
A: +++ (+++ indicates binding activity greater than 90%)

Q: For C=CC(=O)N1C[C@H](C)N(c2nc(N3CC4(CCCN(C5CC5)C4)C3)nc3c(F)c(-c4c(C)ccc5[nH]ncc45)c(Cl)cc23)C[C@H]1C [Compound 182, 1-((2R,5S)-4-(6-chloro-2-(6-cyclopropyl-2,6-diazaspiro[3.5]nonan-2-yl)-8-fluoro-7-(5-methyl-1H-indazol-4-yl)quinazolin-4-yl)-2,5-dimethyl-piperazin-1-yl) prop-2-en-1-one], which Binding % is on record?
A: + (+ indicates binding activity greater than 0% and up to 50%)

Q: How did the Binding % turn out when C=CC(=O)N1C[C@H](C)N(c2nc(N3CC4(CCCN(C)C4)C3)nc3c(F)c(-c4c(O)cccc4F)c(Cl)cc23)C[C@H]1C [Compound 183, 1-((2R,5S)-4-(6-chloro-8-fluoro-7-(2-fluoro-6-hydroxyphenyl)-2-(6-methyl-2,6-diazaspiro[3.5]nonan-2-yl)quinazolin-4-yl)-2,5-dimethyl-piperazin-1-yl) prop-2-en-1-one] was run?
A: ++ (++ indicates binding activity from 50 to 90%)

Q: With C=CC(=O)N1C[C@H](C)N(c2nc(N3CC4(CCN4C)C3)nc3c(F)c(-c4c(O)cccc4F)c(Cl)cc23)C[C@H]1C [Compound 184, 1-((2R,5S)-4-(6-chloro-8-fluoro-7-(2-fluoro-6-hydroxyphenyl)-2-(1-methyl-1,6-diazaspiro[3.3]heptan-6-yl)quinazolin-4-yl)-2,5-dimethyl-piperazin-1-yl) prop-2-en-1-one] as the compound, how does the Binding % read?
A: ++ (++ indicates binding activity from 50 to 90%)

Q: With C=CC(=O)N1C[C@H](C)N(c2nc(N3CC(N(C)C)C3)nc3c(F)c(-c4c(F)cccc4B4OC(C)(C)C(C)(C)O4)c(Cl)cc23)C[C@H]1C [Compound 185, 1-((2R,5S)-4-(6-chloro-2-(3-(dimethylamino)azetidin-1-yl)-8-fluoro-7-(2-fluoro-6-(4,4,5,5-tetramethyl-1,3,2-dioxaborolan-2-yl)phenyl)quinazolin-4-yl)-2,5-dimethyl-piperazin-1-yl) prop-2-en-1-one] as the compound, how does the Binding % read?
A: + (+ indicates binding activity greater than 0% and up to 50%)

Q: Which Binding % does the source give for C=CC(=O)N1C[C@H](C)N(c2nc(N3CC4(CCCN4C)C3)nc3c(F)c(-c4c(C)ccc5[nH]ncc45)c(Cl)cc23)C[C@H]1C [Compound 186, 1-((2R,5S)-4-(6-chloro-8-fluoro-7-(5-methyl-1H-indazol-4-yl)-2-(5-methyl-2,5-diazaspiro[3.4]octan-2-yl)quinazolin-4-yl)-2,5-dimethyl-piperazin-1-yl) prop-2-en-1-one] here?
A: ++ (++ indicates binding activity from 50 to 90%)

Q: C=CC(=O)N1C[C@H](C)N(c2nc(N3CC(N(C)C)C3)nc3c(F)c(-c4c(C)ccc5cn[nH]c45)c(Cl)cc23)C[C@H]1C [Compound 187, 1-((2R,5S)-4-(6-chloro-2-(3-(dimethylamino)azetidin-1-yl)-8-fluoro-7-(6-methyl-1H-indazol-7-yl)quinazolin-4-yl)-2,5-dimethyl-piperazin-1-yl) prop-2-en-1-one] was tested. Which Binding % did it give?
A: +++ (+++ indicates binding activity greater than 90%)

Q: C=CC(=O)N1C[C@H](C)N(c2nc(N3CC(NC)C3)nc3c(F)c(-c4c(C)ccc5[nH]ncc45)c(Cl)cc23)C[C@H]1C [Compound 188, 1-((2R,5S)-4-(6-chloro-8-fluoro-7-(5-methyl-1H-indazol-4-yl)-2-(3-(methylamino)azetidin-1-yl)quinazolin-4-yl)-2,5-dimethyl-piperazin-1-yl) prop-2-en-1-one] was tested. Which Binding % did it give?
A: + (+ indicates binding activity greater than 0% and up to 50%)

Q: Which Binding % does the source give for C=CC(=O)N1C[C@H](C)N(c2nc(N3CC(N(C)C)C3)nc3c(F)c(-c4c(C)ccc5[nH]ncc45)c(C(F)(F)F)cc23)C[C@H]1C [Compound 189, 1-((2R,5S)-4-(2-(3-(dimethylamino)azetidin-1-yl)-8-fluoro-7-(5-methyl-1H-indazol-4-yl)-6-(trifluoromethyl)quinazolin-4-yl)-2,5-dimethyl-piperazin-1-yl) prop-2-en-1-one] here?
A: +++ (+++ indicates binding activity greater than 90%)

Q: C=CC(=O)N1C[C@H](C)N(c2nc(N3CC4(CCN(C)C4)C3)nc3c(F)c(-c4c(O)cccc4F)c(Cl)cc23)C[C@H]1C [Compound 190, 1-((2R,5S)-4-(6-chloro-8-fluoro-7-(2-fluoro-6-hydroxyphenyl)-2-(6-methyl-2,6-diazaspiro[3.4]octan-2-yl)quinazolin-4-yl)-2,5-dimethyl-piperazin-1-yl) prop-2-en-1-one] was tested. Which Binding % did it give?
A: ++ (++ indicates binding activity from 50 to 90%)

Q: How did the Binding % turn out when C=CC(=O)N1C[C@H](C)N(c2nc(OCCCN(C)C)nc3c(F)c(-c4c(C)ccc5cn[nH]c45)c(Cl)cc23)C[C@H]1C [Compound 191, 1-((2R,5S)-4-(6-chloro-2-(3-(dimethylamino)propoxy)-8-fluoro-7-(6-methyl-1H-indazol-7-yl)quinazolin-4-yl)-2,5-dimethyl-piperazin-1-yl) prop-2-en-1-one] was run?
A: +++ (+++ indicates binding activity greater than 90%)

Q: Which Binding % does the source give for C=CC(=O)N1C[C@H](C)N(c2nc(N3CC4(COC4)C3)nc3c(F)c(-c4c(O)cccc4F)c(Cl)cc23)C[C@H]1C [Compound 192, 1-((2R,5S)-4-(6-chloro-8-fluoro-7-(2-fluoro-6-hydroxyphenyl)-2-(2-oxa-6-azaspiro[3.3]heptan-6-yl)quinazolin-4-yl)-2,5-dimethyl-piperazin-1-yl) prop-2-en-1-one] here?
A: ++ (++ indicates binding activity from 50 to 90%)

Q: Which Binding % does the source give for C=CC(=O)N1C[C@H](C)N(c2nc(N3CC4(CCO4)C3)nc3c(F)c(-c4c(C)ccc5[nH]ncc45)c(Cl)cc23)C[C@H]1C [Compound 193, 1-((2R,5S)-4-(6-chloro-8-fluoro-7-(5-methyl-1H-indazol-4-yl)-2-(1-oxa-6-azaspiro[3.3]heptan-6-yl)quinazolin-4-yl)-2,5-dimethyl-piperazin-1-yl) prop-2-en-1-one] here?
A: ++ (++ indicates binding activity from 50 to 90%)

Q: How did the Binding % turn out when C=CC(=O)N1C[C@H](C)N(c2nc(N3CC4(CCCN(C)C4)C3)nc3c(F)c(-c4c(C)ccc5[nH]ncc45)c(Cl)cc23)C[C@H]1C [Compound 194, 1-((2R,5S)-4-(6-chloro-8-fluoro-7-(5-methyl-1H-indazol-4-yl)-2-(6-methyl-2,6-diazaspiro[3.5]nonan-2-yl)quinazolin-4-yl)-2,5-dimethyl-piperazin-1-yl) prop-2-en-1-one] was run?
A: ++ (++ indicates binding activity from 50 to 90%)

Q: With C=CC(=O)N1C[C@H](C)N(c2nc(N3CC4(CCCN(C5CC5)C4)C3)nc3c(F)c(-c4c(O)cccc4F)c(Cl)cc23)C[C@H]1C [Compound 195, 1-((2R,5S)-4-(6-chloro-2-(6-cyclopropyl-2,6-diazaspiro[3.5]nonan-2-yl)-8-fluoro-7-(2-fluoro-6-hydroxyphenyl)quinazolin-4-yl)-2,5-dimethyl-piperazin-1-yl) prop-2-en-1-one] as the compound, how does the Binding % read?
A: + (+ indicates binding activity greater than 0% and up to 50%)

Q: [2H]C([2H])([2H])N(C1CN(c2nc(N3C[C@@H](C)N(C(=O)C=C)C[C@@H]3C)c3cc(Cl)c(-c4c(O)cccc4F)c(F)c3n2)C1)C([2H])([2H])[2H] [Compound 196, 1-((2R,5S)-4-(2-(3-(bis (trideuteromethyl)amino)azetidin-1-yl)-6-chloro-8-fluoro-7-(2-fluoro-6-hydroxyphenyl)quinazolin-4-yl)-2,5-dimethyl-piperazin-1-yl) prop-2-en-1-one] was tested. Which Binding % did it give?
A: +++ (+++ indicates binding activity greater than 90%)

Q: For C=CC(=O)N1C[C@H](C)N(c2nc(OCCc3ncccn3)nc3c(F)c(-c4c(C)ccc5[nH]ncc45)c(Cl)cc23)C[C@H]1C [Compound 197, 1-((2R,5S)-4-(6-chloro-8-fluoro-7-(5-methyl-1H-indazol-4-yl)-2-(2-(pyrimidin-2-yl)ethoxy)quinazolin-4-yl)-2,5-dimethyl-piperazin-1-yl) prop-2-en-1-one], which Binding % is on record?
A: +++ (+++ indicates binding activity greater than 90%)

Q: With C=CC(=O)N1C[C@H](C)N(c2nc(OCCc3ncccn3)nc3c(F)c(-c4c(O)cccc4F)c(Cl)cc23)C[C@H]1C [Compound 198, 1-((2R,5S)-4-(6-chloro-8-fluoro-7-(2-fluoro-6-hydroxyphenyl)-2-(2-(pyrimidin-2-yl)ethoxy)quinazolin-4-yl)-2,5-dimethyl-piperazin-1-yl) prop-2-en-1-one] as the compound, how does the Binding % read?
A: +++ (+++ indicates binding activity greater than 90%)

Q: With C=CC(=O)N1C[C@H](C)N(c2nc(OCCCN(C)C)nc3c(F)c(-c4c(C)ccc5[nH]ncc45)c(Cl)cc23)C[C@H]1C [Compound 199, 1-((2R,5S)-4-(6-chloro-2-(3-(dimethylamino)propoxy)-8-fluoro-7-(5-methyl-1H-indazol-4-yl)quinazolin-4-yl)-2,5-dimethyl-piperazin-1-yl) prop-2-en-1-one] as the compound, how does the Binding % read?
A: ++ (++ indicates binding activity from 50 to 90%)

Q: C=CC(=O)N1C[C@H](C)N(c2nc(N3CC4(CCN(C5CC5)CC4)C3)nc3c(F)c(-c4c(C)ccc5[nH]ncc45)c(Cl)cc23)C[C@H]1C [Compound 200, 1-((2R,5S)-4-(6-chloro-2-(7-cyclopropyl-2,7-diazaspiro[3.5]nonan-2-yl)-8-fluoro-7-(5-methyl-1H-indazol-4-yl)quinazolin-4-yl)-2,5-dimethyl-piperazin-1-yl) prop-2-en-1-one] was tested. Which Binding % did it give?
A: ++ (++ indicates binding activity from 50 to 90%)

Q: C=CC(=O)N1C[C@H](C)N(c2nc(OCCN3CCC(F)(F)C3)nc3c(F)c(-c4cc(O)cc5ccccc45)c(Cl)cc23)C[C@H]1C [Compound 201, 1-((2R,5S)-4-(6-chloro-2-(2-(3,3-difluoropyrrolidin-1-yl)ethoxy)-8-fluoro-7-(3-hydroxynaphthalen-1-yl)quinazolin-4-yl)-2,5-dimethyl-piperazin-1-yl) prop-2-en-1-one] was tested. Which Binding % did it give?
A: ++ (++ indicates binding activity from 50 to 90%)
